Data: patent US20240269293A1, “PROTEIN-MACROMOLECULE CONJUGATES AND METHODS OF USE THEREOF” (BEIJING XUANYI PHARMASCIENCES CO., LTD., priority 2021, published 2024)
Like-named read-outs stand apart in the source and are kept apart here.

Experiments:
CTLL-2 cells = test: CTLL-2 cell proliferation assay; assay type: cell-based, mouse
Experimental: CTLL-2 cells (mouse cytotoxic T lymphocyte cell line) were maintained in complete RPMI 1640 medium supplemented with 10% fetal bovine serum, and 10% IL-2 culture supplement (T-STIM™ with ConA (concanavalin-A)) at 37° C. under a 5% CO2 atmosphere. The cells were cultured in suspension until they reach a cell density of 2-3×10^5 cells/ml before splitting.
For the activity assay, 3-4 days after the last split, the cells were washed three times in Dulbecco's phosphate buffered saline. The cells were then re-suspended in supplemented media without T-STIM™ at a cell density of ˜5×10^5 cells/mL, and plated in 96-well white walled clear bottom microplates at 90 μl/well. Experiments were also conducted using supplemented media (without T-STIM™) adjusted to pH 6.7-7, in order to minimize the release of conjugates during the course of incubation. Then, 10 μl of 10× concentrations of test compound, diluted in supplemented media without T-STIM™, was added. The cells were incubated at 37° C. in a 5% CO2 atmosphere for 48 hours.
The activity of both released IL-2 and unreleased conjugates were tested. The test compounds were stored under acidic condition (10 mM, sodium acetate buffer, pH 4) to stabilize conjugation. To test the activity of conjugates, the sample was diluted from the storage buffer into supplemented media ˜ one hour prior to the assay. […]

CD8+ T cells = test: pSTAT5 signaling in human LRS-derived PBMC, CD8+ T cells (flow cytometry); assay type: cell-based; settings: for pSTAT5 EC50, CD8+ T cells: 45 minute incubation
Experimental: (§2) To determine how test compounds affect activation of primary immune cell subpopulations, concentration-response profiling of lymphocyte activation in human LRS-derived peripheral blood mononuclear cell (PBMC) samples were performed using multi-color flow cytometry.
(§3) An LRS was acquired day of draw and PBMC was extracted using a ficoll density gradient protocol. PBMC was resuspended in RPMI supplemented with 10% Fetal Bovine Serum and 1% Pen-Strep Glutamine. PBMC was incubated at 37° C. for 30 minutes prior to stimulation.
(§4) A 12-point dose curve with 5-fold dilutions was created for all compounds. Top dose was 30 ug mL. Dose curves were diluted in PBS w/0.1% BSA and added as 10× stocks. After a 45 minute incubation, samples were fixed and stained with antibodies to detect the phosphorylated form of the transcription factor STAT5 (pTATA5), and a panel of surface markers to follow pSTAT5 formation in specific T Cell and natural killer (NK) cell subpopulation.
(§5) Samples were stained with the following pre-perm panel: CD3, CD25, CD8, CD56, CD16, CD4, Dump (CD14), Dump (CD19), and CD127. Stains were incubated for 30 minutes then washed out. Streptavidin BV421 (Biolegend cat #405225) was then added and incubated for 20 minutes. Streptavidin was washed out and samples were MeOH permed and stained with the following post-perm panel: FOXP3. STAT5, Dump (CD15). Stains were incubated for 60 minutes then washed out and analyzed by flow cytometry.
(§6) Flow cytometry data were analyzed for activation of different T and NK cell subsets in concentration-response mode, reading pSTAT5 accumulation after treatment with test compounds. The median fluorescence intensity for pSTAT5 was used to create the dose curves. EC50 values for NK cells, Treg cells, CD8+ T cells were calculated from the concentration-response curves.

NK cells = test: pSTAT5 signaling in human LRS-derived PBMC, NK cells (flow cytometry); assay type: cell-based; settings: 45 minute incubation
Experimental: as §2, §3, §4, §5, §6

Treg cells = test: pSTAT5 signaling in human LRS-derived PBMC, Treg cells (flow cytometry); assay type: cell-based; settings: 45 minute incubation
Experimental: as §2, §3, §4, §5, §6

[1] = test system: CT26 murine colon carcinoma; assay type: in vivo
Experimental: 5×10^5 CT26 cells in 0.1 ml of PBS were implanted subcutaneously for each 7-10 weeks old syngeneic female BALB/c mouse in the right front flank region. Tumors were allowed to grow to palpable size, i.e., 80-110 cu mm before randomization and assigning groups (n=8) as designed. The mice were administered test compounds i.e., rIL-2, rIL-2-polymer conjugates of vehicle at different dose concentrations and dose regimes as indicated in Tables 6-8. The body weights and tumor volumes were measured three times per week. Mice that have been tumor free for more than 30 days were re-challenged in the left front flank with CT26 tumor cells (5×10^5) in 0.1 mal of PBS.
(§1) Tumor growth inhibition following the administration of rIL-2 and rIL-2-polymer conjugates at different administration schemes were provided in FIGS. 5A-7B. The tumor growth inhibition (TGI) for different treatment groups, complete response (CR) rate, toxicity and rechallenge results were shown in Tables 9-11. Tumor Growth Inhibition; TGI %=(1−ΔT/ΔC)×100; Ti and Ci as the mean tumor volumes of the treatment and vehicle groups on the measurement day; T0 and C0 as the mean tumor volumes of the treatment and vehicle groups on Day 0.

[2] = test system: MC38 murine colon carcinoma; test: Subcutaneous MC38 murine colon carcinoma syngeneic model; assay type: in vivo, C57BL/6 mouse; settings: 2 mg/kg IP b.i.d. × 5, 2 cycles
Experimental: 1×10^6 MC38 cells in 0.1 ml of PBS were implanted subcutaneously for each 7-10 weeks old syngeneic female C57BL/6 mouse in the right front flank region. Tumors were allowed to grow to palpable size, i.e., 80-100 cu mm before randomization and assigning groups (n=3) as designed. The mice were administered test compounds i.e., IL-2, rIL-2-polymer conjugates of vehicle at different dose concentrations and dose regimes as indicated in Table 12. The body weights and tumor volumes were measured three times per week.
as §1, with “FIG. 8.” for “FIGS. 5A-7B.”, “rate, and” for “rate,”, “toxicity” for “toxicity and rechallenge results”, “Table 13.” for “Tables 9-11.”

[3] = test system: metastatic melanoma and renal cell carcinoma; settings: high-dose regimen administered every eight hours; cited from earlier work
[4] = Table 9, 2 mg/kg IP b.i.d. × 5, 2 cycles
[5] = Table 11, 2 mg/kg IP b.i.d. × 5, 2 cycles

Example 24: recombinant IL-2 of SEQ ID NO:1 expressed in E. coli, used as control
EC50 (CTLL-2 cells; Table 3A, 48 hour incubation, CCK8): 1.03 pM | EC50, CTLL-2 cell proliferation (CTLL-2 cells; Table 3B, unreleased conjugate (rIL-2 control as such)): 0.78 ng/mL | CD8/Treg ratio (pSTAT5 EC50) (CD8+ T cells; Run 1): 928 | pSTAT5 EC50, CD8+ T cells (CD8+ T cells; Run 1): 37.10 ng/mL | CD8/Treg ratio (pSTAT5 EC50) (CD8+ T cells; Run 2): 302 | pSTAT5 EC50, CD8+ T cells (CD8+ T cells; Run 2): 78.50 ng/mL | CD8/Treg ratio (pSTAT5 EC50) (CD8+ T cells; Run 3): 1874 | pSTAT5 EC50, CD8+ T cells (CD8+ T cells; Run 3): 37.48 ng/mL | pSTAT5 EC50, NK cells (NK cells; Run 1): 9.34 ng/mL | pSTAT5 EC50, NK cells (NK cells; Run 2): 22.02 ng/mL | pSTAT5 EC50, NK cells (NK cells; Run 3): 4.01 ng/mL | pSTAT5 EC50, Treg cells (Treg cells; Run 1): 0.04 ng/mL | pSTAT5 EC50, Treg cells (Treg cells; Run 2): 0.26 ng/mL | pSTAT5 EC50, Treg cells (Treg cells; Run 3): 0.02 ng/mL | TGI (day 19) ([1]; Table 9 (FIGS. 5A-5B), 2 mg/kg IP b.i.d. × 5, 2 cycles): 61.76% | CR (tumor free mice/mice treated) [1, 4]: 1/8 | Re-challenge (final tumor free mice/re-challenged mice) [1, 4]: 1/1 | TGI (day 3) ([1]; Table 10 (FIGS. 6A-6B), 3 mg/kg (first cycle) IP, 2 mg/kg (second cycle) IV, b.i.d. × 5, 2 cycles): 95.71% (day 3) | CR (tumor free mice/mice treated) ([1]; Table 10, 3, 2 mg/kg b.i.d. × 5, 2 cycles): 0/8 | TGI (day 17) ([1]; Table 11 (FIGS. 7A-7B), 2 mg/kg IP b.i.d. × 5, 2 cycles): 102.41% | CR (tumor free mice/mice treated) [1, 5]: 1/8 | Re-challenge (final tumor free mice/re-challenged mice) [1, 5]: 1/1 | TGI (day 15) ([2]; Table 13 (FIG. 8)): 100.75% | CR (day 38) (tumor free mice/mice treated) ([2]; Table 13): 1/8

aldesleukin
Durable responses [3]: up to 25%
